In publication PMC7178755 (Toxicology and applied pharmacology, 2019):

Assay: Plasma toxicokinetics after single intravenous administration in rats
Format: in vivo, Harlan Sprague Dawley rats
Settings: for AUC(0-inf) / Cmax / Vd: Hsd:Sprague Dawley SD, rat, iv, 34 mg/kg
[1] = free BPAF, female rats, 34 mg/kg IV, mean (SE)
[2] = free BPAF, male rats, 34 mg/kg IV, mean (SE)

Work on `Oc1ccc(C(c2ccc(O)cc2)(C(F)(F)F)C(F)(F)F)cc1` [BPAF, Bisphenol AF] yielded an AUC(0-inf) (female) of 45300 ng·h/mL, a Cmax (female) of 71.5 µg/mL and a Vd (female) of 0.697 L/kg. The Cl1 [1] was 0.751 (0.118) L/h/kg, the K12 [1] was 0.0656 (0.0398) 1/h and the K21 [1] was 0.141 (0.0339) 1/h. The V1 [1] was 0.476 (0.115) L/kg, the V2 [1] was 0.222 (0.0922) L/kg and the Cl1 [2] was 0.753 (0.102) L/h/kg. For the same compound, the Cl2 [2] was 0.0225 (0.00797) L/h /kg, the K12 [2] was 0.0503 (0.0151) 1/h and the K21 [2] was 0.0892 (0.0147) 1/h. For the same compound, the V1 [2] was 0.448 (0.0811) L/kg, the V2 [2] was 0.253 (0.0785) L/kg and the AUC(0-inf) (male) was 45200 ng·h/mL. The Cmax (male) was 75.9 µg/mL and the Vd (male) was 0.7 L/kg.
